According to ChEMBL document CHEMBL5030535, “Conjugates Derived from Lapatinib Derivatives with Cancer Cell Stemness Inhibitors Effectively Reversed Drug Resistance in Triple-Negative Breast Cancer” (J Med Chem, 2021):
Calls of active or inactive are those of the source. The rule behind the calls is not given here.

What was measured:
MCF7 = test: Antiproliferative activity against human MCF7 cells assessed as inhibition of cell growth measured after 72 hrs by MTT assay; assay type: functional, cell-based; settings: MCF7, 72 h
MDA-MB-231 [1] = test: Antiproliferative activity against human drug tolerant MDA-MB-231/lapatinib cells assessed as inhibition of cell growth in measured after 72 hrs by MTT assay; assay type: functional, cell-based; settings: MDA-MB-231, 72 h
MDA-MB-231 [2] = test: Antiproliferative activity against human MDA-MB-231 cells assessed as inhibition of cell growth measured after 72 hrs by MTT assay; assay type: functional, cell-based; settings: MDA-MB-231, 72 h
[3] = molecular target: T1, Aldehyde dehydrogenase 1A1 (Homo sapiens, UniProt P00352); test: Inhibition of ALDH1A1 in human drug-tolerant MDA-MB-231/lapatinib cells assessed as after 24 hrs
T1 sequence (P00352 whole entry): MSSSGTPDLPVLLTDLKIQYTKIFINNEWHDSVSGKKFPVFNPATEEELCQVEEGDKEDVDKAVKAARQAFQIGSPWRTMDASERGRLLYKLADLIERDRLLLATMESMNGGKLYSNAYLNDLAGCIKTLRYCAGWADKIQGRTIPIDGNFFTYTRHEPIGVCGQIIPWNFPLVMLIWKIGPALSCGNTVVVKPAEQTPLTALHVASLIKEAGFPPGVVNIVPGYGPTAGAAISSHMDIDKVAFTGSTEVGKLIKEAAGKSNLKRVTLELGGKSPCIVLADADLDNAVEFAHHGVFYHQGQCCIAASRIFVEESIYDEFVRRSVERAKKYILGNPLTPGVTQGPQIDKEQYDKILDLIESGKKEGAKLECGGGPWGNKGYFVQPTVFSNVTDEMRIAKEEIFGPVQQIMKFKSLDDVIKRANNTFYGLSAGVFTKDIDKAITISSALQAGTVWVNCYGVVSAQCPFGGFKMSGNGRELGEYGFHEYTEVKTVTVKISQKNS

[4] = Resistant factor, ratio of IC50 for antiproliferative activity against drug-tolerant human MDA-MB-231 cells to IC50 for human MDA-MB-231 cells; assay type: functional
HUVEC = test: Antiproliferative activity against human HUVEC cells assessed as inhibition of cell growth in measured after 72 hrs by MTT assay; assay type: cell-based
MDA-MB-231 [5] = test: Cell cycle arrest in human drug-tolerant MDA-MB-231/lapatinib cells assessed as accumulation at G2-M phase at 20 uM incubated for 24 hrs by PI staining based flow cytometry; assay type: functional
MDA-MB-231 [6] = test: Inhibition of cell stemness in drug-tolerant human MDA-MB-231/lapatinib cells assessed as inhibition of Jagged expression at 20 uM after 24 hrs by flow cytometry; assay type: functional, cell-based
MDA-MB-231 [7] = test: Inhibition of cell migration in human drug-tolerant MDA-MB-231/lapatinib cells at 20 uM; assay type: functional
MDA-MB-231 [8] = test: Cell cycle arrest in human drug-tolerant MDA-MB-231/lapatinib cells assessed as increase in accumulation at S phase at 20 uM incubated for 24 hrs […]; assay type: functional, cell-based
MDA-MB-231 [9] = test: Inhibition of Wnt/beta-Catenin signaling in drug-tolerant human MDA-MB-231/lapatinib cells assessed as reduction in p-GSK3beta level at 20 uM incubated for 24 hrs by Western blot analysis
MDA-MB-231 [10] = test: Inhibition of Wnt/beta-Catenin signaling in drug-tolerant human MDA-MB-231/lapatinib cells assessed as reduction in S100A4 mRNA level at 20 uM incubated for 24 hrs by qRT-PCR analysis
MDA-MB-231 [11] = test: Inhibition of Wnt/beta-Catenin signaling in drug-tolerant human MDA-MB-231/lapatinib cells assessed as reduction in cyclin D1 mRNA level at 20 uM incubated for 24 hrs by qRT-PCR analysis
[12] = molecular target: T2, Epidermal growth factor receptor (Homo sapiens, UniProt P00533); test: Inhibition of human EGFR in human drug-tolerant MDA-MB-231/lapatinib cells assessed as inhibition of phosphorylation Akt1/2/3 at Ser473 of measured after 24 hrs by Western blot analysis; settings: dose 5-20 µM
MDA-MB-231 [13] = test: Inhibition of cell stemness in human drug-tolerant MDA-MB-231/lapatinib cells assessed as inhibition of CD44+/CD24- expression at 20 uM after 24 hrs by flow cytometry analysis; assay type: functional
MDA-MB-231 [14] = test: Inhibition of Wnt/beta-Catenin signaling in drug-tolerant human MDA-MB-231/lapatinib cells assessed as reduction in MMP7 mRNA level at 20 uM incubated for 24 hrs by qRT-PCR analysis; assay type: tissue-based
MDA-MB-231 [15] = test: Inhibition of cell stemness in human drug-tolerant MDA-MB-231/lapatinib cells assessed as inhibition of SOX-2 expression at 20 uM after 24 hrs by qRT-PCR analysis; assay type: functional, cell-based
MDA-MB-231 [16] = test: Cell cycle arrest in human MDA-MB-231 cells assessed as increase in accumulation at S phase at 20 uM incubated for 24 hrs by PI staining based flow cytometry; assay type: functional
MDA-MB-231 [17] = test: Antitumor activity against drug-tolerant human MDA-MB-231/lapatinib cells injected in BALB/c mouse assessed as tumor development measured after 8 weeks; assay type: functional, cell-based
[18] = Octanol/water partition coefficient, log P of the compound by shake flask method based thermodynamic solubility assay; assay type: physicochemical
MDA-MB-231 [19] = test: Inhibition of cell stemness in drug-tolerant human MDA-MB-231/lapatinib cells assessed as inhibition of Notch expression at 20 uM after 24 hrs by flow cytometry; assay type: functional, cell-based
MDA-MB-231 [20] = test: Potency index, ratio of lapatinib IC50 to test compound IC50 for induction of apoptosis in drug-tolerant human MDA-MB-231 cells/lapatinib cells assessed as apoptotic rate at 20 uM measured after 24 hrs by flow cytometry; assay type: functional
MDA-MB-231 [21] = test: Inhibition of Wnt/beta-Catenin signaling in drug-tolerant human MDA-MB-231/lapatinib cells assessed as increase in nuclear expression of p-beta-catenin level at 20 uM incubated for 24 hrs by Western blot analysis
MDA-MB-231 [22] = test: Inhibition of colony formation in human drug-tolerant MDA-MB-231/lapatinib cells at 5 uM measured after 24 hrs; assay type: functional
MDA-MB-231 [23] = test: Cell cycle arrest in human MDA-MB-231 cells assessed as accumulation at G2-M phase at 20 uM incubated for 24 hrs by PI staining based flow cytometry; assay type: functional
[24] = molecular target: T2, Epidermal growth factor receptor; test: Inhibition of human EGFR in human MDA-MB-231 cells assessed as inhibition of phosphorylation Akt1/2/3 at Ser473 of measured after 24 hrs by Western blot analysis; assay type: cell-based; settings: dose 5-20 µM
MDA-MB-231 [25] = test: Induction of apoptosis in drug-tolerant human MDA-MB-231 cells/lapatinib cells assessed as apoptotic rate at 20 uM measured after 24 hrs by flow cytometry; assay type: functional
MDA-MB-231 [26] = test: Inhibition of Wnt/beta-Catenin signaling in drug-tolerant human MDA-MB-231/lapatinib cells assessed as reduction in beta-catenin level at 20 uM incubated for 24 hrs by Western blot analysis
MDA-MB-231 [27] = test: Inhibition of cell stemness in human drug-tolerant MDA-MB-231/lapatinib cells assessed as inhibition of Kif4 expression at 20 uM after 24 hrs by qRT-PCR analysis; assay type: functional, cell-based
MDA-MB-231 [28] = test: Induction apoptosis in MDA-MB-231/ lapatinib cells assessed as apoptotic cells at 20 uM measured after 24 hrs by propidium iodide staining based flow cytometric analysis; assay type: functional, cell-based; settings: Homo sapiens
[29] = molecular target: T2, Epidermal growth factor receptor; test: Inhibition of human EGFR in human MDA-MB-231 cells assessed as inhibition of phosphorylation ERK1/2 at T202/Y204 of measured after 24 hrs by Western blot analysis; assay type: cell-based; settings: dose 5-20 µM
MDA-MB-231 [30] = test: Inhibition of cell stemness in human drug-tolerant MDA-MB-231/lapatinib cells assessed as inhibition of OCT4 expression at 20 uM after 24 hrs by qRT-PCR analysis; assay type: functional, cell-based
MDA-MB-231 [31] = test: Inhibition of Wnt/beta-Catenin signaling in drug-tolerant human MDA-MB-231/lapatinib cells assessed as reduction in c-Myc mRNA level at 20 uM incubated for 24 hrs by qRT-PCR analysis
[32] = molecular target: T2, Epidermal growth factor receptor; test: Inhibition of human EGFR phosphorylation in human drug-tolerant MDA-MB-231/lapatinib cells measured after 24 hrs by Western blot analysis; settings: dose 5-20 µM
[33] = molecular target: T2, Epidermal growth factor receptor; test: Inhibition of human EGFR in human drug-tolerant MDA-MB-231/lapatinib cells assessed as inhibition of phosphorylation ERK1/2 at T202/Y204 of measured after 24 hrs by Western blot analysis; settings: dose 5-20 µM
[34] = molecular target: T2, Epidermal growth factor receptor; test: Inhibition of exogenous EGFR (unknown origin)
[35] = molecular target: T2, Epidermal growth factor receptor; test: Inhibition of human EGFR phosphorylation in human MDA-MB-231 cells measured after 24 hrs by Western blot analysis; assay type: cell-based; settings: dose 5-20 µM
MDA-MB-231 [36] = test: Inhibition of cell invasion in human MDA-MB-231/lapatinib cells at 20 uM; assay type: functional
MDA-MB-231 [37] = test: Antiproliferative activity against drug-tolerant human MDA-MB-231/lapatinib cells assessed as CD44+/CD24- cells measured at 20 uM after 24 hrs by MTT assay; assay type: functional
MDA-MB-231 [38] = test: Antiproliferative activity against drug-tolerant human MDA-MB-231/lapatinib cells assessed as CD44-positive cells measured after 24 hrs by MTT assay; assay type: functional, cell-based; settings: MDA-MB-231, 24 h

T2 sequence (P00533 whole entry): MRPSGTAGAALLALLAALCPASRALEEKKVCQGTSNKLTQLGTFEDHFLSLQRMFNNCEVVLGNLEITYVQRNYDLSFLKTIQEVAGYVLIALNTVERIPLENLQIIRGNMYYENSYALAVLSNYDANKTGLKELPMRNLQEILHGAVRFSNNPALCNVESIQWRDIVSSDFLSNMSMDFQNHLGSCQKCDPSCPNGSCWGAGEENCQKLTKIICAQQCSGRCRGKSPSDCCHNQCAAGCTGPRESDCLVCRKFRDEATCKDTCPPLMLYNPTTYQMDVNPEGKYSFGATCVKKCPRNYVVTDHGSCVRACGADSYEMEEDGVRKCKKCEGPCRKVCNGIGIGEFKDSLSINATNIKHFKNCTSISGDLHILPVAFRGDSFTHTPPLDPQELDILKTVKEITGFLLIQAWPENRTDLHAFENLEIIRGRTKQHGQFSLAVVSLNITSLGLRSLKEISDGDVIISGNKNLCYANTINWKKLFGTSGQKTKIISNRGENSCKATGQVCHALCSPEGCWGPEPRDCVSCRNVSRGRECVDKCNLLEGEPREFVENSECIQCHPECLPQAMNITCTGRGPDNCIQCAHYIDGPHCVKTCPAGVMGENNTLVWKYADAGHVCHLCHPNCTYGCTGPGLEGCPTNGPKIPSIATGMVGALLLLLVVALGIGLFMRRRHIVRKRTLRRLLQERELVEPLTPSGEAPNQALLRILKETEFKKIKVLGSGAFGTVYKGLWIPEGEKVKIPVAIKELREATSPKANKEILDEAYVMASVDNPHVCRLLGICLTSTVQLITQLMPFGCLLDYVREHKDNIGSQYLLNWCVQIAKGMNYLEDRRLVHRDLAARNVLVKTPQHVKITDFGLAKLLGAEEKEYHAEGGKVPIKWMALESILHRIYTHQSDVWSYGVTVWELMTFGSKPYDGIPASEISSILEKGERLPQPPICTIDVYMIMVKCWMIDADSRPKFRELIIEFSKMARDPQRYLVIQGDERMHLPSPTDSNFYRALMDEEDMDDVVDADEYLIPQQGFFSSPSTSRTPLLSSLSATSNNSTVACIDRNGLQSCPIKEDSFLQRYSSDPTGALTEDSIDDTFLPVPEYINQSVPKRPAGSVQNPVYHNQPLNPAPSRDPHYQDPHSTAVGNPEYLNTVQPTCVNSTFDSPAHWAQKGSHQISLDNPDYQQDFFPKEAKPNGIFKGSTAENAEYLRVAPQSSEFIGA

OCCN1CCN(CCCN2c3ccccc3Sc3ccc(Cl)cc32)CC1 [PERPHENAZINE]
IC50 (MCF7): 35.8 µM | IC50 (MDA-MB-231 [1]): 31.8 µM | IC50 (MDA-MB-231 [2]): 30.4 µM | IC50 [3]: 0.524 µM | Ratio IC50 [4]: 1.05 | IC50 (HUVEC): 97.8 µM

CS(=O)(=O)CCN(Cc1ccc(-c2ccc3ncnc(Nc4ccc(OCc5cccc(F)c5)c(Cl)c4)c3c2)o1)C(=O)CCC(=O)OCCN1CCN(CCCN2c3ccccc3Sc3ccc(Cl)cc32)CC1
Activity (MDA-MB-231 [5]): Active | inhibition (MDA-MB-231 [6]): Active | inhibition at 20 µM (MDA-MB-231 [7]): 13.2% | Activity (MDA-MB-231 [8]): Active | inhibition (MDA-MB-231 [9]): Active | IC50 (MCF7): 3.62 µM | IC50 (MDA-MB-231 [1]): 1.03 µM | inhibition (MDA-MB-231 [10]): Active | inhibition (MDA-MB-231 [11]): Active | inhibition [12]: Dose-Dependent Effect | inhibition at 20 µM (MDA-MB-231 [13]): 0.56% | inhibition (MDA-MB-231 [14]): Active | inhibition (MDA-MB-231 [15]): Active | Activity (MDA-MB-231 [16]): Active | Activity (MDA-MB-231 [17]): Active | logP [18]: 2.49 | IC50 (MDA-MB-231 [2]): 1.54 µM | IC50 [3]: 0.0864 µM | inhibition (MDA-MB-231 [19]): Active | Ratio IC50 (MDA-MB-231 [20]): 2.23 | Ratio IC50 [4]: 0.67 | inhibition (MDA-MB-231 [21]): Active | inhibition at 5 µM (MDA-MB-231 [22]): 10.9% | Activity (MDA-MB-231 [23]): Active | inhibition [24]: Active | Activity (MDA-MB-231 [25]): 72% | inhibition (MDA-MB-231 [26]): Active | inhibition (MDA-MB-231 [27]): Active | IC50 (HUVEC): 89.2 µM | Activity (MDA-MB-231 [28]): Active | inhibition [29]: Active | inhibition (MDA-MB-231 [30]): Active | inhibition (MDA-MB-231 [31]): Active | inhibition [32]: Dose-Dependent Effect | inhibition [33]: Dose-Dependent Effect | IC50 [34]: 0.0105 µM | inhibition [35]: Dose-Dependent Effect | inhibition at 20 µM (MDA-MB-231 [36]): 56.3% | inhibition at 20 µM (MDA-MB-231 [37]): 72.9% | IC50 (MDA-MB-231 [38]): 0.56 µM

CS(=O)(=O)CCN(Cc1ccc(-c2ccc3ncnc(Nc4ccc(OCc5cccc(F)c5)c(Cl)c4)c3c2)o1)C(=O)CCCC(=O)OCCN1CCN(CCCN2c3ccccc3Sc3ccc(Cl)cc32)CC1
IC50 (MCF7): 7.38 µM | IC50 (MDA-MB-231 [1]): 5.74 µM | IC50 (MDA-MB-231 [2]): 4.51 µM | Ratio IC50 [4]: 1.27 | IC50 (HUVEC): 100 µM

CS(=O)(=O)CCN(Cc1ccc(-c2ccc3ncnc(Nc4ccc(OCc5cccc(F)c5)c(Cl)c4)c3c2)o1)C(=O)CCC(=O)OCCN1CCN(CCCN2c3ccccc3Sc3ccc(C(F)(F)F)cc32)CC1
IC50 (MCF7): 6.38 µM | IC50 (MDA-MB-231 [1]): 3.42 µM | IC50 (MDA-MB-231 [2]): 2.98 µM | Ratio IC50 [4]: 1.17 | IC50 (HUVEC): 39.6 µM

CS(=O)(=O)CCN(Cc1ccc(-c2ccc3ncnc(Nc4ccc(OCc5cccc(F)c5)c(Cl)c4)c3c2)o1)C(=O)CCCC(=O)OCCN1CCN(CCCN2c3ccccc3Sc3ccc(C(F)(F)F)cc32)CC1
IC50 (MCF7): 9.16 µM | IC50 (MDA-MB-231 [1]): 7.12 µM | IC50 (MDA-MB-231 [2]): 6.58 µM | Ratio IC50 [4]: 1.08 | IC50 (HUVEC): 43.4 µM
